According to US3984562A, “Substituted benzodiazepines and method of use” (American Cyanamid Company, priority 1975, dated 1976):
Like-named read-outs stand apart in the source and are kept apart here.

Experiment: protection from convulsions resulting from the administration of pentylenetetrazole (anti-anxiety test, rats, oral)
Format: in vivo
Details: Rattus norvegicus, read-out: Median Effective Oral Dose ED50
Procedure: The anti-anxiety properties of these compounds have been established in a test which indicates anxiolytic activity by a measure of protection from convulsions resulting from the administration of pentylenetetrazole. Graded dose levels of the compounds are administered orally, in a 2% starch vehicle, to groups of at least 5 rats. At the estimated time of peak effect, the rats are treated intravenously with pentylenetetrazole at a dose of 21 to 23 mg./kg. of body weight. This dose is estimated to cause clonic seizures in 99% of unprotected rats. The effective dose of the test compound for protection of 50% of the animals (ED50) is calculated by the method of D. H. Finney in Statistical Methods in Biological Assay, Second Edition, Hafner Publishing Co., New York, 1964, pp. 456-457. The results of this test on representative compounds of the present invention are given in the following table in comparison with meprobromate which is tested in the same manner. It has been reported [R. T. Hill and D. H. Tedeschi, "Animal Testing and Screening Procedures in Evaluating Psychotropic Drugs" in An Introduction to Psychopharmacology, Eds. R. R. Rech and K. E. Moore, Raven Press, New York, pp. 237-288 (1971)] that there is a high degree of correlation between antagonism of pentylenetetrazole seizures in rats and anti-anxiety effects in higher warm-blooded animals.

[1] = oral, 2% starch vehicle, rats (at least 5 per group), pentylenetetrazole 21 to 23 mg./kg. intravenously at estimated time of peak effect, protection of 50% of animals

Structure (SMILES) | ED50 [1] [mg/kg] | ED50 (po) [mg/kg]
O=C(CCN1CCCCC1)N1CC2CCCN2Cc2ccccc21 (single isomer, unassigned; (-)) [(-)-2,3,5,10,11,11a-Hexahydro-10-(3-piperidinopropionyl)-1H-pyrrolo[2,1-c][1,4]benzodiazepine] | 16 | –
CCCC(C)(COC(N)=O)COC(N)=O [meprobromate, reference compound] | – | 22
O=C(CCN1CCCC1)N1CC2CCCN2Cc2ccccc21 (single isomer, unassigned; (-)) [(-)-2,3,5,10,11,11a-Hexahydro-10-[3-(1-pyrrolidinyl)-propionyl]-1H-pyrrolo[2,1-c] [1,4]benzodiazepine] | 57 | –
O=C(CCN1CCCC1)N1CC2CCCN2Cc2cc(Cl)ccc21 (single isomer, unassigned; (-)) [(-)-7-Chloro-2,3,5,10,11,11a-hexahydro-10-[3-(1-pyrrolidinyl)-propionyl]-1H-pyrrolo[2,1-c][1,4]benzodiazepine] | 7 | –
